What was measured:
[1] = Glass transition temperature by DSC; assay type: physicochemical; settings: measured by DSC
Experimental: Tack was measured by modifications to the […] standard. On an Instron® load frame, the tackifier to be tested was applied to a glass slide at a thickness of 0.1 mm. The slide was then clamped to a flat surface and, perpendicularly, a type 304 stainless steel probe measuring 5 mm in diameter, with a 90° polished tip was place above the slide. The probe was then lowered at a rate of 0.5 mm sec^−1 and contacted the surface at an average force of 1.5 N. The probe was then held on the surface for 1.0 sec and then raised at a rate of 0.5 mm sec^−1. Tack was measured as the maximum force required to remove the probe from the surface of the tackifier. Tg was measured by DSC.

[2] = Water solubility of tackifiers; assay type: physicochemical
Source text: Altering the identity of the acid anhydride altered tackifier properties.

Tg [1] [°C] | Water solubility (in words) [2] | SMILES
−26 |  | O=C(O)CCCC(=O)O[C@@H]1CO[C@H]2[C@@H]1OC[C@H]2OC(=O)CCCC(=O)O [5b]
−2 | substantially water-soluble | O=C(O)CCC(=O)OC1COC2C(OC(=O)CCC(=O)O)COC12 (stereo not shown) [3a]
−2 |  | O=C(O)CCC(=O)O[C@@H]1CO[C@H]2[C@@H]1OC[C@H]2OC(=O)CCC(=O)O [5a]
16 |  | O=C(O)C=CC(=O)O[C@H]1CO[C@H]2[C@@H]1OC[C@H]2OC(=O)C=CC(=O)O [3c]
−24 | substantially water-insoluble | O=C(O)CCCC(=O)O[C@H]1CO[C@H]2[C@@H]1OC[C@H]2OC(=O)CCCC(=O)O [3b]

— patent US10280241B2, “Tackifier compounds and methods of using the same” (Iowa State University Research Foundation, Inc., priority 2012, dated 2019)
